From US8927572B2, “Crystal form I of salt of a dipeptidyl peptidase-IV inhibitor and preparation method and use thereof” (Xuanzhu Pharma Co., Ltd., priority 2011, dated 2015)
Where a name gives a salt, the structure may show the parent alone.

Assays:
[1] = In vivo pharmacokinetics in SD rats; set-up: species or system SD (Sprague Dwaley) rats
Method: (§1) Test sample: the crystal form I of dihydrochloride salt of Compound A prepared from Example 1.
Experimental Animals: SD (Sprague Dwaley) rats, quantity 12.
The SD rats were divided into two groups, namely Intravenous Injection group and Intragastric Administration group, and there were 6 rats in each group in which one half were female and the other were male. The dose administrated was always 10 mg/kg (in terms of Compound A). The volume administered by the intravenous injection route was 5 mL/kg, and the volume administered by the intragastric administration route was 10 mL/kg. The time points for sequential blood sampling were 0 minutes before administration (0 min), and 5 min, 15 min, 30 min, 1 h, 2 h, 4 h, 6 h, 8 h, 12 h and 24 h after administration. About 150 μL of blood was collected into a sodium heparin anticoagulation tube from the caudal vein or Inner canthus vein after administration. The whole blood was placed in a high-speed refrigerated centrifuge (8000 rpm, 0-4° C.) and centrifuged for 6 min. The supernatant of the blood plasma was separated and stored in a refrigerator for measurement. The centrifugation of all blood samples was completed within 30 min after blood collection. The concentration of Compound A in the blood plasma of SD rats was determined by LC-MS/MS method.
Analysis and processing of Data: The plasma concentration—time curve was plotted, and the pharmacokinetic parameters were calculated by using the non-compartment model in Phrsight Phoenix 6.1.

Long-term stability test = format: physicochemical; settings: for Content of Compound A (%) / Content of Relevant Substance (%) / Properties: 25° C.±2° C., RH 60%±10%
Method: The Test Conditions for Investigating the Long-Term Stability:
Each of the test samples was placed at a temperature of 25° C.±2° C. and a humidity of RH 60%±10%. Sampling was performed at the end of Months 3, 6, 9, 12 and 18 respectively, and Relevant Substance and the content of Compound A were measured and compared with those of the sample on Day 0. During the investigation, the sample was packed with a plastic bag for packing drugs as the inner layer and an aluminium foil as the outer layer.
(§2) The content was measured by using an External Standard method in accordance with the High Performance Liquid Chromatography in Chinese Pharmacopoeia, Appendix V D, Edition 2010.
(§3) Measurement of Relevant Substance
(§4) The Relevant Substance was measured by using an Area Normalization method in accordance with the High Performance Liquid Chromatography in Chinese Pharmacopoeia, Appendix V D, Edition 2010.

[2] = Influence factor stability test (high temperature, high humidity, light irradiation); format: physicochemical
Method: The crystal form I of dihydrochloride salt of Compound A prepared from Example 1.
The Test Conditions for Investigating the Influencing Factors:
Each of the test samples was placed at a high temperature of 60° C. (packed with an plastic bag for packing drugs as the inner layer and an aluminium foil as the outer layer), a high humidity of RH75%±5% (uniformly spread on a dry and clean watch glass), and a light irradiation of 4500 Lx±500 Lx (uniformly spread on a dry and clean watch glass). Sampling was performed on Day 5 and Day 10 respectively, and Relevant Substance and the content of Compound A were measured and compared with those of the sample on Day 0.
as §2, §3, §4

blood glucose = assay: Oral Glucose Tolerance Test (OGTT) in mice; format: in vivo, Mice C57BL/6; settings: for inhibition ratio for the blood glucose AUC: glucose 3 g/kg
Method: as §1
Experimental animals: Mice C57BL/6, quantity 40.
On the day before the test, the food for mice was removed at 5 p.m., and the mice were fasted overnight. On the second day, the fasting blood glucose of each mouse was checked at 9 a.m. and recorded as −30 min blood glucose. The body weight was weighed and recorded. After balancing the blood glucose level and body weight, the mice were randomly divided into four groups, namely Background Control group, Vehicle Control group, Dosing group 1 and Dosing group 2. To the later three groups, a vehicle (0.9% sodium chloride injection solution), 1 mg/kg test sample and 3 mg/kg test sample was administered respectively, and the volume administered was 10 mL/kg. The blood glucose of each mouse was measured and recorded as 0 min blood glucose 30 minutes after the intragastric administration. Afterwards glucose was further administered via intragastric administration at a dose of 3 g/kg to the Vehicle Control group, Dosing group 1 and Dosing group 2, and 0.9% sodium chloride injection solution was administered via intragastric administration to the Background Control group at an intragastric administration volume of 10 mL/kg. Then, the blood glucose levels were measured at 20, 40, 60 and 120 minutes after the administration of glucose or sodium chloride solution.
Analysis and Processing of the Data:
The area under the time-blood glucose curve of the OGTT (Oral Glucose Tolerance Test) (AUC) was calculated. A net variable AUC (ΔAUC) was obtained by subtracting the AUC of Background Control group from that of Vehicle Control group, Dosing groups 1 and 2. The inhibition ratio (%)=100×(ΔAUCVehicle Control group-ΔAUC)/ΔAUCVehicle Control group, wherein ΔAUC is the net variable AUC of each Dosing group, and ΔAUCVehicle Control group is the net variable AUC of Vehicle Control group. The data of Dosing groups were compared with that of Vehicle Control group by using t-test value analysis, and the difference was considered significant at p<0.05.

[3] = Investigation on the water solubility; format: physicochemical
Text: Investigation on the Water Solubility of Crystal Form I of Dihydrochloride Salt of Compound A

DPP-IV = DPP-IV (Homo sapiens, UniProt P27487); settings: background; described in CN201010291056.9; cited from earlier work
[4] = intravenous injection, 10 mg/kg (in terms of Compound A)

Sequence of DPP-IV (P27487 whole entry, species assumed): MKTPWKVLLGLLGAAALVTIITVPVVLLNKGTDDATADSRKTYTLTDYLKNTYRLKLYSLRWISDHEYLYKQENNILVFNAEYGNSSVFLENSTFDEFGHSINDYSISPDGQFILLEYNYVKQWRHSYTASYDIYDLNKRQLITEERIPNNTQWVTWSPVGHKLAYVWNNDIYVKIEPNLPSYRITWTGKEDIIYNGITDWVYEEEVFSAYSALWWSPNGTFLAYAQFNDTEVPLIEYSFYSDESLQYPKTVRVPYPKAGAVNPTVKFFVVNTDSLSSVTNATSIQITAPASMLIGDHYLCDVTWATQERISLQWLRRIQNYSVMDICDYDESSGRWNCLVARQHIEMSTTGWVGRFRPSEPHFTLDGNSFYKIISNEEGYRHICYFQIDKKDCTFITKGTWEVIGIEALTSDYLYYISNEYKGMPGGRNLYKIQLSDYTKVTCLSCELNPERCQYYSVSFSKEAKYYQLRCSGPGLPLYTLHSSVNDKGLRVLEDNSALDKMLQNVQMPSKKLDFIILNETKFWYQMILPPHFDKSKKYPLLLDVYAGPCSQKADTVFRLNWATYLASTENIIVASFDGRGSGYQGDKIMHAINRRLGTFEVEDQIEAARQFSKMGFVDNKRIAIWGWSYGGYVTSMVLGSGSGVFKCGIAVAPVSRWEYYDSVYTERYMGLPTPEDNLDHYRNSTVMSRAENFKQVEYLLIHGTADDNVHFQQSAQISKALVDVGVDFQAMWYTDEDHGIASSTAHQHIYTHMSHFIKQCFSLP

Cc1cc(N2CCC[C@@H](N)C2)c2c(n1)n(C)c(=O)n2Cc1ccccc1C#N [crystal form I of dihydrochloride salt of Compound A]
in vivo bioavailability (in words) [1]: high | apparent volume of distribution (Vd) [1, 4]: 6.17 L/kg | plasma clearance (CL) [1, 4]: 40 mL/min/kg | Content of Compound A (%) (Long-term stability test; Month 0): 99.53% | Content of Relevant Substance (%) (Long-term stability test; Month 0): 0.211% | Properties (Long-term stability test; Month 0): white crystalline | Content of Compound A (%) (Long-term stability test; Month 3): 99.32% | Content of Relevant Substance (%) (Long-term stability test; Month 3): 0.251% | Properties (Long-term stability test; Month 3): white crystalline | Content of Compound A (%) (Long-term stability test; Month 6): 99.19% | Content of Relevant Substance (%) (Long-term stability test; Month 6): 0.246% | Properties (Long-term stability test; Month 6): white crystalline | Content of Compound A (%) (Long-term stability test; Month 9): 98.99% | Content of Relevant Substance (%) (Long-term stability test; Month 9): 0.248% | Properties (Long-term stability test; Month 9): white crystalline | Content of Compound A (%) (Long-term stability test; Month 12): 99.17% | Content of Relevant Substance (%) (Long-term stability test; Month 12): 0.221% | Properties (Long-term stability test; Month 12): white crystalline | Content of Compound A (%) (Long-term stability test; Month 18): 99.37% | Content of Relevant Substance (%) (Long-term stability test; Month 18): 0.221% | Properties (Long-term stability test; Month 18): white crystalline | Relevant Substance and the content of Compound A (change, in words) (Long-term stability test; long-term stability investigating test): substantially unchanged | Content of Compound A (%) ([2]; 60° C., Day 5): 98.80% | Content of Relevant Substance (%) ([2]; 60° C., Day 5): 0.156% | Properties ([2]; 60° C., Day 5): white crystalline | Content of Compound A (%) ([2]; 60° C., Day 10): 99.42% | Content of Relevant Substance (%) ([2]; 60° C., Day 10): 0.142% | Properties ([2]; 60° C., Day 10): white crystalline | Content of Compound A (%) ([2]; 4500Lx ± 500Lx, Day 5): 98.09% | Content of Relevant Substance (%) ([2]; 4500Lx ± 500Lx, Day 5): 0.194% | Properties ([2]; 4500Lx ± 500Lx, Day 5): white crystalline | Content of Compound A (%) ([2]; 4500Lx ± 500Lx, Day 10): 99.17% | Content of Relevant Substance (%) ([2]; 4500Lx ± 500Lx, Day 10): 0.159% | Properties ([2]; 4500Lx ± 500Lx, Day 10): white crystalline | Content of Compound A (%) ([2]; Day 0): 99.16% | Content of Relevant Substance (%) ([2]; Day 0): 0.151% | Properties ([2]; Day 0): white crystalline | Content of Compound A (%) ([2]; RH 75% ± 5%, Day 5): 99.30% | Content of Relevant Substance (%) ([2]; RH 75% ± 5%, Day 5): 0.200% | Properties ([2]; RH 75% ± 5%, Day 5): white crystalline | Content of Compound A (%) ([2]; RH 75% ± 5%, Day 10): 99.55% | Content of Relevant Substance (%) ([2]; RH 75% ± 5%, Day 10): 0.171% | Properties ([2]; RH 75% ± 5%, Day 10): white crystalline | Relevant Substance and the content of Compound A (change, in words) ([2]; high temperature, high humidity and light irradiation): substantially unchanged | effect for reducing blood glucose (in words) (blood glucose; mice C57BL/6): significant effect for reducing blood glucose | inhibition ratio for the blood glucose AUC (blood glucose; mice C57BL/6, 1 mg/kg intragastric): 57% | inhibition ratio for the blood glucose AUC (blood glucose; mice C57BL/6, 3 mg/kg intragastric): 65% | Water solubility [3]: >1000 mg/mL | Water solubility (in words) [3]: dissolved very easily in water

Cc1cc(N2CCC[C@@H](N)C2)c2c(n1)n(C)c(=O)n2Cc1ccccc1C#N [Compound A, (R)-2-[[7-(3-aminopiperidin-1-yl)-3,5-dimethyl-2-oxo-2,3-dihydro-1H-imidazo[4,5-b]pyridin-1-yl]methyl]benzonitrile]
Water solubility [3]: <0.1 mg/mL | Water solubility (in words) [3]: hardly dissolved or insoluble in water | inhibitory effect for DPP-IV (in words) (DPP-IV): strong inhibitory effect | selectivity for DPP-IV (in words) (DPP-IV): very high selectivity

Cc1cc(N2CCC[C@@H](N)C2)c2c(n1)n(C)c(=O)n2Cc1ccccc1C#N
bioavailability ([1]; both sexes, Sprague-Dawley, rat, plasma, oral, intragastric vs intravenous, 10 mg/kg (in terms of Compound A), read-out: bioavailability (F %)): 96.6%
